Laboratory results taken from article PMC7501296, “Rapid and direct control of target protein levels with VHL-recruiting dTAG molecules” (Nature Communications, 2020).
“And” between values parts separate entries of the source, which are not always exact repeats. Equal values may be shown once.

Tested on: EWS502 FKBP12^F36V-EWS/FLI; EWS/FLI^−/− cells
Test: Quantitative MS proteomics, EWS502 FKBP12F36V-EWS/FLI; EWS/FLI-/- cells
Type: cell-based, Homo sapiens
Settings: for TMT intensity per TMT channel: biological replicates
Procedure: Cell pellets from PATU-8902 and EWS502 cells were lysed using 8 M urea, 200 mM 4-(2-hydroxyethyl)-1-piperazinepropanesulfonic acid (EPPS) at pH 8.5 with protease inhibitors. Samples were further homogenized and DNA was sheered via sonication using a probe sonicator (20 × 0.5 s pulses; level 3). Total protein was determined using a BCA assay and stored at −80 °C until future use. A total of 100 µg of protein was aliquoted for each condition and TMT channel for further downstream processing. Protein extracts were reduced using 10 mM dithiothreitol (DTT) for 30 min at room temperature. Next, samples were alkylated with 20 mM iodoacetamide for 45 min in the dark at room temperature. To facilitate the removal of incompatible reagents, proteins were precipitated using chloroform methanol. Briefly, to 100 µL of each sample, 400 µL of methanol was added, followed by 100 µL of chloroform with thorough vortexing. Next, 300 µL of HPLC grade water was added and samples were vortexed thoroughly. Each sample was centrifuged at 14,000 × g for 5 min at room temperature. The upper aqueous layer was removed and the protein pellet was washed twice with methanol and centrifuged at 14,000 × g for 5 min at room temperature. Protein pellets were resolubilized in 200 mM EPPS buffer and digested overnight with Lys-C (1:100, enzyme:protein ratio) at room temperature. The next day, trypsin (1:100 ratio) was added and incubated at 37 °C for an additional 6 h in a ThermoMixer set to 1000 RPM.
To each digested sample, 30% anhydrous acetonitrile was added and 100 µg of peptides were labeled using 200 µg of TMT reagent (TMT1-TMT11). Following labeling, a 5% hydroxylamine solution was used to quench excess TMT reagent. To equalize protein loading, a ratio check was performed by pooling 2 µg of each TMT-labeled sample. Samples were pooled and desalted using in-house packed C18 StageTips and analyzed by LC-MS/MS. Normalization factors were calculated from this label check, samples were mixed 1:1 across all TMT channels and desalted using a 100 mg Sep-Pak solid phase extraction cartridge. Eluted pooled peptides were further fractionated with basic-pH reverse-phase (bRP) HPLC using an Agilent 300 extend C18 column and collected into a 96 deep-well plate. Samples were consolidated into 24 fractions, and 12 nonadjacent fraction were desalted using StageTips prior to analyses using LC-MS/MS[35]–[37].
All mass spectrometry data was acquired using an Orbitrap Fusion mass spectrometer in-line with a Proxeon NanoLC-1000 UHPLC system. Peptides were separated using an in-house 100 µm capillary column packed with 40 cm of Accucore 150 resin (2.6 µm, 150 Å) (Thermo Fisher Scientific) using a 180 min LC gradient per fraction. Eluted peptides were acquired using synchronous precursor selection (SPS-MS3) method for TMT quantification. Briefly, MS1 spectra were acquired at 120 K resolving power with a maximum of 50 ms in the Orbitrap. MS2 spectra were acquired by selecting the top ten most abundant features via collisional induced dissociation (CID) in the ion trap using an automatic gain control (AGC) of 15 K, quadrupole isolation width of 0.7 m/z and a maximum ion time of 100 ms. For MS3 acquisition, a synchronous precursor selection of ten fragment ions was acquired with an AGC of 150 K for 150 ms and a normalized collision energy of 55.
All acquired raw data were converted to mzXML using Raw File Reader (v3.0.77). Spectra were processed using Comet (2019.01.5)[39]–[41], search results were filtered using the LDA function MASS Package in R, and data were processed using an in-house informatics pipeline[42]–[44]. Custom code was not developed in this study. Briefly, peptide spectral libraries were first filtered to a peptide false discovery rate (FDR) of less than 1% using linear discriminant analysis employing a target decoy strategy. […]

CC[C@H](C(=O)N1CCCC[C@H]1C(=O)O[C@H](CCc1ccc(OC)c(OC)c1)c1ccccc1OCC(=O)NCCCCCCC(=O)N[C@H](C(=O)N1C[C@H](O)C[C@H]1C(=O)N[C@@H](C)c1ccc(-c2scnc2C)cc1)C(C)(C)C)c1cc(OC)c(OC)c(OC)c1 [dTAG^V-1]
Downstream EWS/FLI targets such as NKX2-2 (1 μM): decrease | FKBP12F36V-EWS/FLI abundance, proteomics (1 μM, 6 h): pronounced loss | TMT intensity per TMT channel (protein ALX1, 2 h): 329.39 and 330.899 and 363.825 | TMT intensity per TMT channel (protein ALX1, 6 h): 447.307 and 474.897 and 456.686 | TMT intensity per TMT channel (protein ALX1, 24 h): 404.298 and 454.379 and 455.33 | TMT intensity per TMT channel (protein ALX4, 2 h): 469.052 and 457.885 and 499.883 | TMT intensity per TMT channel (protein ALX4, 6 h): 458.233 and 484.524 and 491.274 | TMT intensity per TMT channel (protein ALX4, 24 h): 439.297 and 450.367 and 443.433 | Fold change > 2 (protein HMGCR, 1 μM, 6 h): + (Fold change in which '+' refers to fold change > 2.) | log2 (Fold change) compared to DMSO (protein HMGCR, 1 μM, 6 h): 1.415 | TMT intensity per TMT channel (protein HOXD13, 2 h): 710.117 and 733.089 and 700.291 | TMT intensity per TMT channel (protein HOXD13, 6 h): 834.508 and 881.589 and 912.211 | TMT intensity per TMT channel (protein HOXD13, 24 h): 931.777 and 1032.27 and 996.28 | log2 (Fold change) compared to DMSO (protein NOB1, 1 μM, 6 h): 0.3965 | TMT intensity per TMT channel (protein PHOX2B, 2 h): 138.138 and 127.877 and 140.273 | TMT intensity per TMT channel (protein PHOX2B, 6 h): 146.64 and 175.628 and 155.142 | TMT intensity per TMT channel (protein PHOX2B, 24 h): 163.818 and 130.026 and 156.319 | log2 (Fold change) compared to DMSO (protein PRCP, 1 μM, 6 h): -0.5172 | TMT intensity per TMT channel (protein SLC12A2, 2 h): 2102.8 and 2152.89 and 2069.05 | TMT intensity per TMT channel (protein SLC12A2, 6 h): 2768.92 and 2608.81 and 2791.59 | TMT intensity per TMT channel (protein SLC12A2, 24 h): 2883.76 and 2924.13 and 2976.61 | log2 (Fold change) compared to DMSO (protein SQLE, 1 μM, 6 h): 0.8919 | log2 (Fold change) compared to DMSO (protein TMEM126A, 1 μM, 6 h): -0.3183
